Values quoted from earlier work, collected in patent US6514941B1, “Method of preparing a casein hydrolysate enriched in anti-hypertensive peptides” (Campina Melkunie B.V., priority 1999, dated 2003).

Test system: SHRSP
Details: dose that is not hypotensive

Structure (SMILES): C[C@H](CS)C(=O)N1CCC[C@H]1C(=O)O [captopril]
- onset of stroke: inhibits the onset of stroke
